Laboratory results as given in US20150216921A1, “BASE POWDER FROM THE RED RASPBERRY RUBUS IDAEUS AND ACTIVATED MICRONIZED ZEOLITE FOR ATTENUATING NICOTINE ADDICTION, METHOD FOR THE PREPARATION THEREOF AND USE THEREOF” (University fo Hidalgo, priority 2011, published 2015).

Columns and labels:
[1] = system: tumorigenicity of the nitrosamine NNK; settings: dose of 4g/kg; cited from earlier work
[2] = system: anxiety caused by nicotine withdraw syndrome; experiment: High-cross test, anxiety caused by nicotine withdraw syndrome; type: in vivo; settings: mice, nicotine for 14 consecutive days then suspended
Description: (§1) 7. Using raspberry powder and pure ellagic acid (Sigma Aldrich) two experiments in mice were developed, one was to evaluate the effect of those in the anxiety caused by nicotine withdraw syndrome; and the other was to evaluate the nicotine addiction. Based on the process mentioned in the Mexican Institute of Industrial Property in patent application number Mx/a/2010/000827 record dated 21/ENE/2010, folio MX/E/2010/004489. In the first case the high-cross test was used and in the second test site selectivity paradigm. Nicotine was administered to mice for 14 consecutive days and when it was suspended, anxiety was developed.

nicotine addiction = experiment: Site selectivity paradigm, nicotine addiction; type: in vivo; settings: mice conditioned by nicotine
Description: as §1

[3] = system: lung tumorogenesis of benzo [a] pyrene; settings: cited from earlier work
[4] = system: physical dependence on nicotine; experiment: Fagerstrom test, degree of nicotine dependence; type: in vivo, humans; settings: persons quitting smoking, at end of treatment
Description: (§2) 9. Treatment 1:—Two persons, a person and a person […], used ZAM ® (activated and micronized zeolite) at doses of 5 g daily during 14 days.
(§3) 10. Treatment 2:—Two persons, a person and a person […], used the raspberry powder recorded in January 2010 in the Mexican Institute of Industrial Property (patent application number record Mx/ a/2010/ 000827, at folio MX/E/2010/004489). At a dose of 5 g per day during 14 days.
(§4) 11. Treatment 3: A person, a person used a commercial product of raspberry, with similar characteristics to the raspberry powder, mentioned in the previous section, in combination with ZAM® (activated and micronized zeolite) at dose of 5 g per day.
(§5) 12. Treatment 4: Two persons, a person and a person, used raspberry powder registered in the patent application number Mx/a/2010/000827, folio MX/E/2010/004489) in combination with ZAM® (micronized and activated zeolite) in a dose of 7 g per day during 14 days.
(§6) 13. Treatment 5:—A person used varenicline, commercial brand, at dose of 1 mg twice daily during 7 days, then 0.5 mg daily for the next 3 days; continuing with 0.5 mg twice a day during 4 days, and finally 1 mg during 1 day, every 12 h. This cycle was repeated 12 weeks. Treatment 5.
14. Anxiety was assessed by the Hamilton Anxiety Scale (Hamilton, 1969; Bulbena, 2000; APA, 2000) and the degree of nicotine dependence with Fagerstrom test (1991).
25. […]

[5] = system: anxiety (withdrawal syndrome); experiment: Hamilton Anxiety Scale in persons quitting smoking; type: in vivo, humans; settings: one person, 12 weeks treatment
Description: as §2, §3, §4, §5
13. […]
14. Anxiety was assessed by the Hamilton Anxiety Scale (Hamilton, 1969; Bulbena, 2000; APA, 2000) and the degree of nicotine dependence with Fagerstrom test (1991). […]
16. 14 scale items were evaluated, 13 related to anxiety symptoms and signs, and the last item values the patient's behavior during the assessment interview. […]
17. The physician scored from 0 to 4 points each item, assessing both the intensity and the frequency of it. […]

smoking = experiment: Smoking cessation and follow-up by telephone; type: in vivo, humans
Description: as §2, §3, §4, §5, §6

Structure (SMILES): O=c1oc2c(O)c(O)cc3c(=O)oc4c(O)c(O)cc1c4c23 [ellagic acid, 2,3,7, 8—tetrahidrobenzopirano [5,4, 3—cde] benzopiran-5-10 diona]
- inhibition of tumor multiplicity [1]: 54%
- signs related to anxiety caused by the refraining from exposure to nicotine [2]: significantly reduce
- nicotine-conditioned behavior (nicotine addiction): modulate this behavior in a significant way
- effect against tumorogenesis in lung of benzo [a] pyrene ([3]; intra peritoneal injection): not effective
- inhibition in the lung tumorogenesis of benzo [a] pyrene ([3]; mice feed by EA at a dose of 400 mg/kg): 90%

Structure (SMILES): c1cnc2cc3c(cc2n1)[C@@H]1CNC[C@H]3C1 [varenicline]
- Fagerstrom test, physical dependence after treatment [4]: high (The Smokers with 6 or 7 points suffer high physical dependence)
- Hamilton Anxiety Scale, anxiety during the first month of treatment [5]: less anxiety
- Hamilton Anxiety Scale, anxiety during the second and third month [5]: increased anxiety
- relapse a month after the treatment (smoking; monitoring by telephone, 1 month after treatment ends): fall smoking again
- smoking cessation during treatment period (smoking; persons, during treatment / proposed period): quit smoking in the second month of treatment
